Experimental data as given in patent US20230085307A1, “PYRIDAZINONE COMPOUND AND HERBICIDE” (NISSAN CHEMICAL CORPORATION, priority 2019, published 2023).

How the values were obtained:
late watergrass = assay: Test Example 1: herbicidal activity, application before weed generation under submerged conditions (Table 16, symbol A); type: in vivo, late watergrass (Echinochloa oryzicola); details: 320 g/ha applied herbicide
Summary of the method: (§1)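 Submerged Wagner pots (alluvial soil, 4 cm water) sown with weed seeds and planted with 2.5-leaf rice seedlings; emulsifiable concentrate diluted in water applied to water surface on sowing day. Held in greenhouse at 25-30 °C; injury scored 0-5 by herbicidal rate after three weeks.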

Japanese bulrush = assay: Test Example 1: herbicidal activity, application before weed generation under submerged conditions (Table 16, symbol B); type: in vivo, Japanese bulrush (Schoenoplectus juncoides); details: 320 g/ha applied herbicide
Summary of the method: as §1

oval-leafed pondweed = assay: Test Example 1: herbicidal activity, application before weed generation under submerged conditions (Table 16, symbol C); type: in vivo, oval-leafed pondweed (Monochoria vaginalis); details: 320 g/ha applied herbicide
Summary of the method: as §1

barnyard grass [1] = assay: Test Example 3: herbicidal effect by foliage application, Wagner pot (Table 18, symbol H); type: in vivo, barnyard grass (Echinochloa crus-galli); details: 320 g/ha
Summary of the method: (§2)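 Plants were sown in alluvial soil held under 0.1–0.5 cm standing water and grown 14 days in a greenhouse at 25–30 °C. An emulsifiable formulation, water-diluted to the set dose, was then sprayed onto the foliage, and effects were scored three weeks later using previously defined criteria.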

Chinese sprangletop = assay: Test Example 3: herbicidal effect by foliage application, Wagner pot (Table 18, symbol D); type: in vivo, chinese sprangletop (Leptochloa chinensis); details: 320 g/ha
Summary of the method: as §2

rice flat sedge = assay: Test Example 3: herbicidal effect by foliage application, Wagner pot (Table 18, symbol E); type: in vivo, rice flat sedge (Cyperus iria); details: 320 g/ha
Summary of the method: as §2

southern crabgrass [2] = assay: Test Example 4: herbicidal effect by soil treatment (Table 19, symbol F); type: in vivo, southern crabgrass (Digitaria ciliaris); details: 320 g/ha
Summary of the method: (§3)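 Emulsion of test compound, water-diluted to predetermined amount, sprayed on soil after sowing (seed depth ~1.5 cm, sterilized diluvial soil). Greenhouse, 25–30° C. Effect graded at three weeks post-spray.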

green foxtail [3] = assay: Test Example 4: herbicidal effect by soil treatment (Table 19, symbol G); type: in vivo, green foxtail (Setaria viridis); details: 320 g/ha
Summary of the method: as §3

barnyard grass [4] = assay: Test Example 4: herbicidal effect by soil treatment (Table 19, symbol H); type: in vivo, barnyard grass (Echinochloa crus-galli); details: 320 g/ha
Summary of the method: as §3

wild oat [5] = assay: Test Example 4: herbicidal effect by soil treatment (Table 19, symbol I); type: in vivo, wild oat (Avena fatua); details: 320 g/ha
Summary of the method: as §3

blackgrass [6] = assay: Test Example 4: herbicidal effect by soil treatment (Table 19, symbol J); type: in vivo, blackgrass (Alopecurus myosuroides); details: 320 g/ha
Summary of the method: as §3

Italian ryegrass [7] = assay: Test Example 4: herbicidal effect by soil treatment (Table 19, symbol K); type: in vivo, Italian ryegrass (Lolium multiflorum); details: 320 g/ha
Summary of the method: as §3

windgrass [8] = assay: Test Example 4: herbicidal effect by soil treatment (Table 19, symbol L); type: in vivo, windgrass (Apera spica-venti); details: 320 g/ha
Summary of the method: as §3

velvetleaf [9] = assay: Test Example 4: herbicidal effect by soil treatment (Table 19, symbol M); type: in vivo, velvetleaf (Abutilon theophrasti); details: 320 g/ha
Summary of the method: as §3

redroot pigweed [10] = assay: Test Example 4: herbicidal effect by soil treatment (Table 19, symbol N); type: in vivo, redroot pigweed (Amaranthus retroflexus); details: 320 g/ha
Summary of the method: as §3

lambsquarters [11] = assay: Test Example 4: herbicidal effect by soil treatment (Table 19, symbol O); type: in vivo, lambsquarters (Chenopodium album); details: 320 g/ha
Summary of the method: as §3

chickweed [12] = assay: Test Example 4: herbicidal effect by soil treatment (Table 19, symbol P); type: in vivo, common chickweed (Stellaria media); details: 320 g/ha
Summary of the method: as §3

false cleavers [13] = assay: Test Example 4: herbicidal effect by soil treatment (Table 19, symbol Q); type: in vivo, false cleavers (Galium spurium); details: 320 g/ha
Summary of the method: as §3

persian speedwell [14] = assay: Test Example 4: herbicidal effect by soil treatment (Table 19, symbol R); type: in vivo, Persian speedwell (Veronica persica); details: 320 g/ha
Summary of the method: as §3

southern crabgrass [15] = assay: Test Example 5: herbicidal effect by foliage application, plastic box (Table 20, symbol F); type: in vivo, southern crabgrass (Digitaria ciliaris); details: foliage application, 320 g/ha, evaluated three weeks after application
Summary of the method: (§4)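 Post-emergence foliar test in sterilized diluvial soil. Compound applied as water-diluted emulsion at a predetermined rate to 14-day-old plants; evaluation at three weeks.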

green foxtail [16] = assay: Test Example 5: herbicidal effect by foliage application, plastic box (Table 20, symbol G); type: in vivo, green foxtail (Setaria viridis); details: foliage application, 320 g/ha, evaluated three weeks after application
Summary of the method: as §4

barnyard grass [17] = assay: Test Example 5: herbicidal effect by foliage application, plastic box (Table 20, symbol H); type: in vivo, barnyard grass (Echinochloa crus-galli); details: foliage application, 320 g/ha, evaluated three weeks after application
Summary of the method: as §4

wild oat [18] = assay: Test Example 5: herbicidal effect by foliage application, plastic box (Table 20, symbol I); type: in vivo, wild oat (Avena fatua); details: foliage application, 320 g/ha, evaluated three weeks after application
Summary of the method: as §4

blackgrass [19] = assay: Test Example 5: herbicidal effect by foliage application, plastic box (Table 20, symbol J); type: in vivo, blackgrass (Alopecurus myosuroides); details: foliage application, 320 g/ha, evaluated three weeks after application
Summary of the method: as §4

Italian ryegrass [20] = assay: Test Example 5: herbicidal effect by foliage application, plastic box (Table 20, symbol K); type: in vivo, Italian ryegrass (Lolium multiflorum); details: foliage application, 320 g/ha, evaluated three weeks after application
Summary of the method: as §4

windgrass [21] = assay: Test Example 5: herbicidal effect by foliage application, plastic box (Table 20, symbol L); type: in vivo, windgrass (Apera spica-venti); details: foliage application, 320 g/ha, evaluated three weeks after application
Summary of the method: as §4

velvetleaf [22] = assay: Test Example 5: herbicidal effect by foliage application, plastic box (Table 20, symbol M); type: in vivo, velvetleaf (Abutilon theophrasti); details: foliage application, 320 g/ha, evaluated three weeks after application
Summary of the method: as §4

redroot pigweed [23] = assay: Test Example 5: herbicidal effect by foliage application, plastic box (Table 20, symbol N); type: in vivo, redroot pigweed (Amaranthus retroflexus); details: foliage application, 320 g/ha, evaluated three weeks after application
Summary of the method: as §4

lambsquarters [24] = assay: Test Example 5: herbicidal effect by foliage application, plastic box (Table 20, symbol O); type: in vivo, lambsquarters (Chenopodium album); details: foliage application, 320 g/ha, evaluated three weeks after application
Summary of the method: as §4

chickweed [25] = assay: Test Example 5: herbicidal effect by foliage application, plastic box (Table 20, symbol P); type: in vivo, common chickweed (Stellaria media); details: foliage application, 320 g/ha, evaluated three weeks after application
Summary of the method: as §4

false cleavers [26] = assay: Test Example 5: herbicidal effect by foliage application, plastic box (Table 20, symbol Q); type: in vivo, false cleavers (Galium spurium); details: foliage application, 320 g/ha, evaluated three weeks after application
Summary of the method: as §4

persian speedwell [27] = assay: Test Example 5: herbicidal effect by foliage application, plastic box (Table 20, symbol R); type: in vivo, Persian speedwell (Veronica persica); details: foliage application, 320 g/ha, evaluated three weeks after application
Summary of the method: as §4

## CCCC(=O)Oc1c(C)nn(C)c(=O)c1-c1c(-c2ccc(F)cc2OC)sc2ccc(Cl)cc12 [2-096]
Late watergrass
  Herbicidal effect on A: late watergrass (grade 0-5): 1 (Herbicidal rate of 5% or more and less than 20%)
Japanese bulrush
  Herbicidal effect on B: Japanese bulrush (grade 0-5): 3 (Herbicidal rate of 40% or more and less than 70%)
oval-leafed pondweed
  Herbicidal effect on C: oval-leafed pondweed (grade 0-5): 2 (Herbicidal rate of 20% or more and less than 40%)
Barnyard grass [1]
  herbicidal effect on H (barnyard grass), rating 0-5: 3 (Herbicidal rate of 40% or more and less than 70%)
Chinese sprangletop
  herbicidal effect on D (Chinese sprangletop), rating 0-5: 1 (Herbicidal rate of 5% or more and less than 20%)
Rice flat sedge
  herbicidal effect on E (rice flat sedge), rating 0-5: 3 (Herbicidal rate of 40% or more and less than 70%)
Southern crabgrass [2]
  herbicidal effect rating, F: southern crabgrass: 3 (Herbicidal rate of 40% or more and less than 70%)
Green foxtail [3]
  herbicidal effect rating, G: green foxtail: 3 (Herbicidal rate of 40% or more and less than 70%)
Barnyard grass [4]
  herbicidal effect rating, H: barnyard grass: 2 (Herbicidal rate of 20% or more and less than 40%)
Wild oat [5]
  herbicidal effect rating, I: wild oat: 0 (Herbicidal rate of 5% or less (almost no effect))
Blackgrass [6]
  herbicidal effect rating, J: blackgrass: 0 (Herbicidal rate of 5% or less (almost no effect))
Italian ryegrass [7]
  herbicidal effect rating, K: Italian ryegrass: 0 (Herbicidal rate of 5% or less (almost no effect))
Windgrass [8]
  herbicidal effect rating, L: windgrass: 0 (Herbicidal rate of 5% or less (almost no effect))
Velvetleaf [9]
  herbicidal effect rating, M: velvetleaf: 0 (Herbicidal rate of 5% or less (almost no effect))
Redroot pigweed [10]
  herbicidal effect rating, N: redroot pigweed: 5 (Herbicidal rate of 90% or more (almost completely withered))
Lambsquarters [11]
  herbicidal effect rating, O: lambsquarters: 3 (Herbicidal rate of 40% or more and less than 70%)
Chickweed [12]
  herbicidal effect rating, P: chickweed: 4 (Herbicidal rate of 70% or more and less than 90%)
False cleavers [13]
  herbicidal effect rating, Q: false cleavers: 0 (Herbicidal rate of 5% or less (almost no effect))
Persian speedwell [14]
  herbicidal effect rating, R: persian speedwell: 0 (Herbicidal rate of 5% or less (almost no effect))
Southern crabgrass [15]
  herbicidal effect on F: southern crabgrass: 3 (Herbicidal rate of 40% or more and less than 70%)
Green foxtail [16]
  herbicidal effect on G: green foxtail: 3 (Herbicidal rate of 40% or more and less than 70%)
Barnyard grass [17]
  herbicidal effect on H: barnyard grass: 4 (Herbicidal rate of 70% or more and less than 90%)
Wild oat [18]
  herbicidal effect on I: wild oat: 0 (Herbicidal rate of 5% or less (almost no effect))
Blackgrass [19]
  herbicidal effect on J: blackgrass: 4 (Herbicidal rate of 70% or more and less than 90%)
Italian ryegrass [20]
  herbicidal effect on K: Italian ryegrass: 0 (Herbicidal rate of 5% or less (almost no effect))
Windgrass [21]
  herbicidal effect on L: windgrass: 4 (Herbicidal rate of 70% or more and less than 90%)
Velvetleaf [22]
  herbicidal effect on M: velvetleaf: 1 (Herbicidal rate of 5% or more and less than 20%)
Redroot pigweed [23]
  herbicidal effect on N: redroot pigweed: 3 (Herbicidal rate of 40% or more and less than 70%)
Lambsquarters [24]
  herbicidal effect on O: lambsquarters: 3 (Herbicidal rate of 40% or more and less than 70%)
Chickweed [25]
  herbicidal effect on P: chickweed: 5 (Herbicidal rate of 90% or more (almost completely withered))
False cleavers [26]
  herbicidal effect on Q: false cleavers: 4 (Herbicidal rate of 70% or more and less than 90%)
Persian speedwell [27]
  herbicidal effect on R: persian speedwell: 3 (Herbicidal rate of 40% or more and less than 70%)
